Among the data in PubChem BioAssay (NCI) are TGI and GI50 values, retold here.

Some test systems named below: CCRF-CEM leukemia; SF-295 CNS; UACC-257 melanoma; RPMI-8226 leukemia; COLO 205 colon; OVCAR-4 ovarian; SK-MEL-5 melanoma; SNB-19 CNS; EKVX NSCLC; K-562 leukemia.
Common to all, as to assay: NCI tumour cell line growth inhibition, 48 h

Where “and” joins values, the source holds several entries; their conditions need not be identical. Equal entries are not always repeated.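 Growth conditions: 96-well plates. Treatment: test compound, 48 hours, 5 concentrations. Analysis: linear interpolation between bracketing concentrations; unreached endpoints set to highest concentration. Here, GI50 denotes the concentration required for 50% inhibition of growth. TGI is the concentration that stops growth completely.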 A value given as a limit tells only on which side of the number the result lay.

With `COC(=O)C1C=CCC2CCCCC21N1CCCC1` (stereo not drawn), the TGI with CCRF-CEM leukemia, in the experiment on SF-295 CNS, in the experiment with UACC-257 melanoma, in the experiment on RPMI-8226 leukemia, in the experiment on COLO 205 colon and with OVCAR-4 ovarian was over 100 µM each time. The TGI with SK-MEL-5 melanoma, in the experiment on SNB-19 CNS and in the experiment on EKVX NSCLC was over 100 µM each time.
Take `CCN(CC)C(=S)SSC(C)C`: the GI50 is 4.26 µM in the experiment with CCRF-CEM leukemia; 17.9 µM with SF-295 CNS; 21.7 µM in the experiment with UACC-257 melanoma; 1.94 µM in the experiment with RPMI-8226 leukemia; 0.0412 µM in the experiment on COLO 205 colon; 13.4 µM in the experiment on OVCAR-4 ovarian. The results for the GI50 in the experiment with SK-MEL-5 melanoma, in the experiment on SNB-19 CNS and in the experiment with EKVX NSCLC were 11.6 µM, 31.8 µM and 27.4 µM, respectively. In addition, the TGI in the experiment with CCRF-CEM leukemia came out at 30.8 µM; in the experiment with SF-295 CNS, 49 µM; in the experiment on UACC-257 melanoma it was 95.8 µM; in the experiment on RPMI-8226 leukemia, 18.4 µM; in the experiment with COLO 205 colon, 20.6 µM; with OVCAR-4 ovarian, 26.2 µM. For the same molecule, the figures for the TGI with SK-MEL-5 melanoma, in the experiment with SNB-19 CNS and in the experiment with EKVX NSCLC were 24.2 µM, over 100 µM and 70.4 µM, respectively.
With `O=C(Nc1sc2c(c1C(=O)O)CCCC2)c1ccco1`, the GI50 with CCRF-CEM leukemia is over 50 µM; in the experiment on SF-295 CNS it was 26.3 µM; with UACC-257 melanoma it was over 50 µM; in the experiment on RPMI-8226 leukemia it was over 50 µM; with K-562 leukemia it was 23.9 µM; in the experiment with COLO 205 colon it was 44.2 µM. Moreover, the GI50 with SK-MEL-5 melanoma was over 50 µM; in the experiment with SNB-19 CNS it was 29.5 µM; with EKVX NSCLC, 36.3 µM. Moreover, the TGI in the experiment with CCRF-CEM leukemia, in the experiment with SF-295 CNS, in the experiment with UACC-257 melanoma, in the experiment on RPMI-8226 leukemia, in the experiment with K-562 leukemia and with COLO 205 colon was over 50 µM in each case. The TGI in the experiment on SK-MEL-5 melanoma, in the experiment on SNB-19 CNS and with EKVX NSCLC was over 50 µM throughout.
Consider `Cn1c(I)c(C#C[Si](C)(C)C)c(=O)n(C(=O)c2ccccc2)c1=O`, for which the GI50 was 0.432 µM in the experiment with CCRF-CEM leukemia; 21.5 µM with SF-295 CNS; 11.6 µM with UACC-257 melanoma; 2.02 µM with RPMI-8226 leukemia; 1.55 µM with COLO 205 colon; 4.59 µM in the experiment with OVCAR-4 ovarian. The GI50 was 2.76 µM in the experiment on SK-MEL-5 melanoma, 15.5 µM with SNB-19 CNS and 6.06 µM with EKVX NSCLC. Further, the TGI in the experiment with SF-295 CNS is 48.7 µM; with UACC-257 melanoma, 24.6 µM; in the experiment with RPMI-8226 leukemia, over 20.4 µM; in the experiment on COLO 205 colon it was 3.2 µM; in the experiment with OVCAR-4 ovarian, 15.1 µM; in the experiment on SK-MEL-5 melanoma, 9.15 µM. Further, the TGI in the experiment with SNB-19 CNS stood at 31.8 µM; with EKVX NSCLC it was 21.2 µM.
For the molecule `COC(=O)C(C(=O)C(=O)Nc1c(C)cccc1C(C)(C)C)c1nc2ccc(Cl)cc2[nH]c1=O` (stereo not drawn), the TGI with CCRF-CEM leukemia, in the experiment on SF-295 CNS, with UACC-257 melanoma, in the experiment with RPMI-8226 leukemia, in the experiment on K-562 leukemia and in the experiment with OVCAR-4 ovarian was over 100 µM throughout. In addition, the TGI in the experiment on SK-MEL-5 melanoma, in the experiment with SNB-19 CNS and with EKVX NSCLC was over 100 µM in each case.
With `[N-]=[N+]=CC(=O)CCC(N)C(=O)O` (stereo not drawn), the GI50 with CCRF-CEM leukemia was 5.82 µM; in the experiment on UACC-257 melanoma, 78.5 µM; with K-562 leukemia, 3.27 µM; in the experiment on COLO 205 colon, 0.812 µM; with OVCAR-4 ovarian it was 4.2 µM; with SK-MEL-5 melanoma it was 1.48 µM. Further, the GI50 was 10.1 µM in the experiment with SNB-19 CNS and 3.47 µM with EKVX NSCLC. For the same molecule, the TGI is 54.6 µM and 157 µM with CCRF-CEM leukemia; over 250 µM with SF-295 CNS; over 250 µM in the experiment on UACC-257 melanoma; over 250 µM in the experiment on K-562 leukemia; over 128 µM in the experiment with COLO 205 colon; over 206 µM with OVCAR-4 ovarian. Moreover, the figures for the TGI with SK-MEL-5 melanoma, with SNB-19 CNS and with EKVX NSCLC were 105 µM, over 250 µM and over 141 µM, respectively.
Consider `COC1=CC(=O)O/C1=C(\OC)C1OC1c1ccccc1` (stereo not drawn), for which the TGI in the experiment with CCRF-CEM leukemia, with SF-295 CNS, in the experiment with UACC-257 melanoma, in the experiment with RPMI-8226 leukemia, in the experiment on COLO 205 colon and in the experiment with OVCAR-4 ovarian was over 100 µM throughout. The TGI with SK-MEL-5 melanoma, in the experiment with SNB-19 CNS and with EKVX NSCLC was over 100 µM throughout.
On to `Cc1c(C)c([N+](=O)[O-])c2c(c1N)C(=O)c1ccccc1C2=O`, for which the TGI in the experiment with CCRF-CEM leukemia, in the experiment on SF-295 CNS, with UACC-257 melanoma, in the experiment on RPMI-8226 leukemia, in the experiment with K-562 leukemia and with COLO 205 colon was over 100 µM each time. Further, the TGI in the experiment on SK-MEL-5 melanoma, with SNB-19 CNS and with EKVX NSCLC was over 100 µM each time.
On to `Cc1cccc(C2NC(=O)c3ccccc3N2)c1` (stereo not drawn), for which the TGI is over 100 µM with CCRF-CEM leukemia; over 23.2 µM with SF-295 CNS; over 100 µM in the experiment with UACC-257 melanoma; over 27 µM with RPMI-8226 leukemia; over 100 µM in the experiment on COLO 205 colon; over 100 µM in the experiment on OVCAR-4 ovarian. The TGI with SK-MEL-5 melanoma, in the experiment with SNB-19 CNS and in the experiment with EKVX NSCLC was over 100 µM in each case.
Regarding `CC(C)C[C@@H](N)[C@@H](O)C(=O)N[C@H](C(=O)N[C@H](C(=O)N[C@@H](CC(=O)O)C(=O)O)C(C)C)C(C)C`, the GI50 with CCRF-CEM leukemia, with SF-295 CNS, in the experiment on UACC-257 melanoma, in the experiment on K-562 leukemia, in the experiment with COLO 205 colon and in the experiment with OVCAR-4 ovarian was over 20 µM in each case. The GI50 in the experiment with SK-MEL-5 melanoma, with SNB-19 CNS and in the experiment on EKVX NSCLC was over 20 µM throughout. Further, the TGI in the experiment with CCRF-CEM leukemia, in the experiment with SF-295 CNS, in the experiment on UACC-257 melanoma, in the experiment on K-562 leukemia, in the experiment with COLO 205 colon and in the experiment on OVCAR-4 ovarian was over 20 µM in each case. The TGI in the experiment on SK-MEL-5 melanoma, with SNB-19 CNS and with EKVX NSCLC was over 20 µM each time.
